From patent US6831080B2, “Cinnamide derivatives as KCNQ potassium channel modulators” (Bristol-Myers Squibb Company, priority 2001, dated 2004)

Columns and labels:
[1] = system: nerve injury-induced tactile allodynia (L5/L6 ligation), Sprague Dawley rats; assay: Chung model of neuropathic pain (Chung surgery and von Frey test); format: in vivo, rat; details: i.v., von Frey thresholds over 90 min
Description: To test agents for activity against peripheral mononeuropathy nerve injury-induced tactile allodynia, male Sprague Dawley rats (wt. 120-160 g) were surgically prepared with unilateral tight ligation of spinal nerves L5 and L6 following the method of Kim and Chung (Kim S. H., Chung J. M. (1992) Pain, September;50(3):355-63). After 3-4 weeks recovery, paw withdrawal to light touch was assessed as described by Chaplan et al. (Chaplan S. R., et al., (1994) J. Neurosci Methods, July;53(1):55-63). In brief, rats are placed in a plastic cage with a wire mesh bottom and allowed to acclimate for 15-30 minutes, until cage exploration and grooming stops. The plantar surface of each hind paw is touched with a series of von Frey hairs with varying stiffness requiring a known force to buckle to determine the nociceptive threshold. Adult male Sprague Dawley rats (avg. wt. 340 g) were tested in the present study. After acclimation, baseline von Frey thresholds were assessed for the injured hindpaw at −15 min. All test compounds were delivered at 0 min by the intravenous (i.v.) route in a volume of 0.5-2 ml/kg. The vehicle for test compounds was 100% PEG-400. For gabapentin the vehicle was deionized H2O. Animals were tested in one of the following 4 treatment conditions: (a) PEG400, (b) gabapentin (Neurontin) 100 mg/kg, (c) test compounds 3 mg/kg and (d) test compounds 10 mg/kg. Following drug administration, von Frey thresholds are measured at 15, 30, 60 and 90 min. Data were analyzed by a 2-way repeated measures analysis of variance followed by Dunnett's test (p<0.05). Experimenters were kept blind to the treatment condition of rats they tested.
Reversal of neuropathic pain behavior may be expressed as a percentage (0-100%) of the maximum possible effect, over and above the vehicle effects. Specifically, drug effects can be described in terms Δ% MPE according to the following equation: [formula]
AUCdrug=area under the curve for von Frey thresholds of the drug-treated group;
AUCvehicle=area under the curve for von Frey thresholds in the vehicle group;
Time=duration of post-drug testing period (90 min); and
Max=maximum von Frey threshold (15 g).
For example, a compound which immediately reversed neuropathic pain behavior to normal levels, such that animals only responded to the highest von Frey filament (15 g), and maintained normal levels through out the post-drug testing period (90 min) would be calculated as Δ% MPE=100%.

[2] = system: cortical spreading depression (KCl application), Long-Evans rats; assay: In vivo electrophysiology: number of cortical spreading depressions produced by KCl application; details: 1 mg/kg, i.v., 15 min prior to KCl; rat
Source text: Male Long-Evans rats (300-450 g) were used in the present studies (Harlan). Rats were anesthetized with urethane anesthesia (1.2 g/kg i.p.) and placed in a stereotaxic frame. Under anesthesia a Silastic catheter was placed in the jugular vein of the rats. The skull was exposed using a scalpel. A small hole (approximately 2 mm by 3 mm) was drilled in to the skull rostral to the lambdoid suture using a microdrill and steel burr. The dura was disrupted and a drop of mineral oil was placed in this hole to prevent dehydration of the underlying cortex. Ultimately this hole was used for the application of crystalline KCl (described below).
Two additional holes were place in the skull unilaterally at 4 and 8 mm rostral to the application hole. Silver wire electrodes were placed in these latter holes and secured to the skull using acrylic cement. A similar silver wire electrode was sutured to the nuchal muscle to serve as a reference electrode. Electrical DC recordings were obtained using a standard differential amplifier (Warner, DP-304) and commercially available data acquisition equipment (Cambridge Electronic Design, 1401 A-D converter and Spike2 software).
All experimental procedures were conducted while the rats were maintained under anesthesia. Rats were injected with test compound, valproic acid or vehicle (100% PEG-400) 15 min prior to the application of crystalline KCl to the application site described above. All injections were given via the jugular vein at a volume of ≦0.5 ml/kg. Only one treatment was tested per animal. The effect of valproic acid was also determined in this study due to the fact that Depakote™ (divalproex sodium) is one of only three drugs currently indicated for the prophylatic treatment of migraine headache. Valproic acid (30-200 mg/kg i.v.) was obtained from Sigma Chemical Company and was dissolved in a vehicle of isotonic saline.
KCl was applied to the application site for 10 min and was then removed using a saline soaked cotton swab. Mineral oil was subsequently reapplied to the application site. Typically, this application produced a long-lasting series of spreading depressions. The number of spreading depressions produced by this KCl application was the primary measure used to access the effectiveness of compounds in this assay.
Data were analyzed using analyses of variance followed by the Dunnett post-hoc test for pairwise comparisons, when appropriate. A difference was considered significant when p≦0.05.
The effect of representative compounds of Formula I on spreading depression is expressed as the percent reduction from vehicle control and is listed in Table 3.

[3] = system: stretched attend postures, BalbC/HSD mice; assay: Canopy test for anxiety: stretched attend postures (SAPs); format: in vivo, mouse; details: for % Reduction SAPs: i.v., mouse
Source text: The purpose of the Canopy test is to investigate the potential of compounds of Formula I as effective treatments for anxiety by examining an integral component of the risk assessment repertoire of defensive behaviors, the stretched attend posture (SAPs). […] This behavior is investigatory, and is considered an important behavioral indicator of anxiety in mice (Grewal et al., 1997). In brief, mice are placed on an elevated circular platform with a covered space in the middle, and an open space surrounding the covered zone. The number of SAPs the animals makes when exploring this environment are measured.
Subjects: Male BalbC/HSD mice (Harlan Sprague Dawley) weighing approximately 20-25 g at the beginning of the experiment, were used. Animals were group housed 4-5 per cage, in standard shoebox cages and maintained on a 12:12 h light-dark cycle (lights on at 0600). All animals were allowed food and water ad libitum throughout the procedure.
Apparatus: The test apparatus is comprised of a black plexiglas circular platform (70 cm diameter) elevated 60 cm above the floor. A clear red plexiglas (translucent) ‘canopy’ (38 cm diameter) is supported 4 cm directly above the platform by a central pillar, effectively dividing the platform into an inner, covered zone (beneath the canopy) and an outer, exposed zone. The apparatus is illuminated by normal room lighting.
Procedure: On test days mice are transported in their home cage to the testing room which is free of noise/distraction and the mice are injected with the compound of choice, prior to testing. For the KCNQ compounds, when administered IV, pretreatment time is 15 minutes. For oral administration, pretreatment time is 1 hour. Following the pretreatment, the animal is placed in the covered zone of the platform, always oriented in the same direction, facing the pillar. For 5 minutes the animals are allowed to freely explore the apparatus. The dependent variable is the number of Stretched Attend Postures, which are scored by an observer blind to treatment condition. Data were analyzed by an overall analysis of variance followed by Dunnett's post hoc tests. An effect was considered significant if p<0.05.
All test compounds are administered in a volume of 10 ml/kg. Vehicle and buspirone (as the positive control) treated mice were run with each experiment, and buspirone was dissolved in the same vehicle as used per each compound. Compounds of Formula I were administered IV, in a vehicle containing 10% PEG400/5% Tween/85% water, warmed on a hot plate.

With `C[C@H](NC(=O)/C=C/c1ccc(F)cc1)c1ccc2ccccc2c1` [Example 1, (S)-3-(4-Fluoro-phenyl)-N-(1-naphthalen-2-yl-ethyl)acrylamide] the “AUC (Δ% MPE)” value ([1]; 3 mg/kg) was 8 (3 mg/kg, i.v.) Δ% MPE, the “% Reduction (number of spreading depressions, from vehicle control)” value [2] was 25 (1 mg/kg, i.v.) % and the “% Reduction SAPs” value ([3]; 1.25 mg/kg) was 44 (1.25 mg/kg, iv.) %.
With `C[C@H](NC(=O)/C=C/c1ccccc1)c1cccc(N2CCOCC2)c1` [Example 82, (S)-3-Phenyl-N-[1-(3-morpholin-4-yl-phenyl)ethyl]acrylamide] the “AUC (Δ% MPE)” value ([1]; 10 mg/kg) was 25 (10 mg/kg, i.v.) Δ% MPE, the “% Reduction (number of spreading depressions, from vehicle control)” value [2] was 27 (1 mg/kg, i.v.) % and the “% Reduction SAPs” value ([3]; 30 mg/kg) was 28 (30 mg/kg, i.v.) %. For the same compound, the “Stretched attend postures, percent of vehicle control” value ([3]; separate experiments with a vehicle control, dose not given) was 75 % of vehicle control.
In the case of `C[C@H](NC(=O)/C=C/c1ccc(F)cc1)c1ccc(F)c(N2CCOCC2)c1` [Example 169, (S)-N-[1-(4-Fluoro-3-morpholin-4-yl-phenyl)-ethyl]-3-(4-fluoro-phenyl)-acrylamide], the “AUC (Δ% MPE)” value ([1]; 10 mg/kg) is reported as 31 (10 mg/kg,i.v.) Δ% MPE, the “% Reduction (number of spreading depressions, from vehicle control)” value [2] is reported as 25 (1 mg/kg, i.v.) % and the “% Reduction SAPs” value ([3]; 10 mg/kg) is reported as 18 (10 mg/kg, i.v.) %.
